Results published in PMC10818523, “Novel Flurbiprofen Derivatives as Antioxidant and Anti-Inflammatory Agents: Synthesis, In Silico, and In Vitro Biological Evaluation” (Molecules, 2024).
Like-named read-outs stand apart in the source and are kept apart here.

Experiments:
[1] = Hydrogen peroxide scavenging activity (HPSA); format: biochemical; conditions: antioxidant activity, H2O2 scavenging, 10 min at 37 °C, mean ± SD of triplicates
Description: The Manolov et al. method was used to assess the hydrogen peroxide scavenging capability. A 43 mM solution of H2O2 was prepared in potassium phosphate buffer solution (0.2 M, pH 7.4). The analysis of the samples was carried out as follows: in test tubes, 0.6 mL H2O2 (43 mM), 1 mL sample or reference compounds with different concentrations (20–1000 µg/mL), and 2.4 mL potassium phosphate buffer solution were mixed. The mixture was stirred and incubated in the dark for 10 min at 37 °C. Absorbance was measured at 230 nm with a spectrophotometer (Camspec M508, Leeds, UK) against a blank solution containing phosphate buffer and H2O2 without the sample. Ascorbic acid and quercetin were used as reference compounds. The percentage HPSA of the samples was evaluated by comparing with a blank sample and calculated using the following formula: I,%(HPSA)=Ablank−(ATS−ACS)/Ablank×100 where Ablank is the absorbance of the blank sample, ACS is the absorbance of the control sample, and ATS is the absorbance of the test sample.
(§1) All of the analyses were made in triplicates. Data were expressed as mean ± SD. The level of significance was set at p < 0.05. The mean IC50 value was estimated based on three replicates by interpolating the graphical dependence of activity on concentration. Statistical program SPSS 19.0 software was used for data analysis by one-way ANOVA followed by Duncan’s post hoc test to evaluate differences between mean values of activities (SPSS Inc., Chicago, IL, USA).

human albumin = human albumin (Homo sapiens, UniProt P02768); assay: Inhibition of albumin denaturation (IAD); format: biochemical; conditions: heated at 70 °C for 15 min, mean ± SD of triplicates
human albumin, sequence (P02768 25-609): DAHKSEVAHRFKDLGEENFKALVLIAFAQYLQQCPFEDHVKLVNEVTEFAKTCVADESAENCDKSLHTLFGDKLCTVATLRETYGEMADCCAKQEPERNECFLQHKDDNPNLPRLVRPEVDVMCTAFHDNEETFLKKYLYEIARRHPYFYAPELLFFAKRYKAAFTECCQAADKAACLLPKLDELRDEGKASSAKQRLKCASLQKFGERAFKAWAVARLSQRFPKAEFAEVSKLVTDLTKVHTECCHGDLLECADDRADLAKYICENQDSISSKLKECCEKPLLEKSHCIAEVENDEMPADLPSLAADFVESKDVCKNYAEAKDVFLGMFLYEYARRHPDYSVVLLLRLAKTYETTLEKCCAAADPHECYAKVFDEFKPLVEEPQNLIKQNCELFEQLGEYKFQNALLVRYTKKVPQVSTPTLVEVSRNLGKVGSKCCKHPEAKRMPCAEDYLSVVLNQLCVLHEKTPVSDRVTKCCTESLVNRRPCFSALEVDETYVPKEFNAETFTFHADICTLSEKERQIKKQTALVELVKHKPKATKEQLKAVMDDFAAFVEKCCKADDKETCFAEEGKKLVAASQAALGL
Description: In vitro analysis of anti-inflammatory activity was assessed as inhibition of albumin denaturation (IAD). The analysis was performed according Manolov et al. method. The experiment was performed with human albumin. The solution of albumin (1%) was prepared in distilled water (pH 7.4). The tested and the reference compounds were dissolved firstly in PBS resulting in 1000 μg/mL stock solutions. Then a series of working solutions with different concentrations (20–500 μg/mL) in PBS were prepared. The reaction mixture was containing 2 mL test sample/reference of different concentrations and 1 mL albumin (1%). The mixture was incubated at 37 °C for 15 min and then heated at 70 °C for 15 min in water bath. After cooling, the turbidity was measured at 660 nm with a spectrophotometer (Camspec M508, Leeds, UK). Ibuprofen and flurbiprofen were used as reference compounds. The experiment was performed three times. Percentage inhibition of albumin denaturation (IAD) was calculated against the control. The control sample is albumin with the same concentration dissolved in distilled water. %IAD=Ablank−Asample/Ablank×100
as §1

[2] = Experimental determination of lipophilicity (RM), reversed-phase thin-layer chromatography; format: physicochemical; conditions: dimensionless, from thin-layer chromatography Rf
From the text: Lipophilicity can be assessed through either calculation or experimental methods. In our study, we determined the lipophilicity of the resulting flurbiprofen derivatives using a practical approach, employing reversed-phase thin-layer chromatography, a technique previously reported by Hadjipavlou-Litina.
The method employed for assessing the lipophilicity of flurbiprofen derivatives followed the procedure outlined by Hadjipavlou-Litina.

bovine trypsin = biological target: T1, bovine trypsin (Bos taurus, UniProt P00760); assay: Antitryptic activity (ATA); format: biochemical; conditions: human albumin as substrate, mean ± SD of triplicates
T1 sequence (P00760 24-246): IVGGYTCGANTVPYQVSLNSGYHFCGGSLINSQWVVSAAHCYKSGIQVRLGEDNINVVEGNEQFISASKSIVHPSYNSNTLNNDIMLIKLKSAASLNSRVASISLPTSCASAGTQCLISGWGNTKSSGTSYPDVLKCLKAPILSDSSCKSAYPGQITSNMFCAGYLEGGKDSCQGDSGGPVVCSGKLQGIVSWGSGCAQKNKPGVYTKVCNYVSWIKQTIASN
Description: This method is known also as an in vitro anti-arthritic activity. The analysis was performed according to the method of Oyedapo and Femurewa with minor modification as described by Manolov et al.. The reaction mixture was containing 2 mL 0.06 mg/mL bovine trypsin, 1 mL Tris-HCl buffer (20 mM, pH 7.4) and 1 mL test sample or reference (in methanol) of different concentrations (20-1000 μg/mL). The mixture was incubated at 37 °C for 5 min. Then 1 mL of human albumin (4% v/v) was added. The mixture was incubated for an additional 20 min. To the mixture 2 mL of 70% perchloric acid was added for termination of the reaction. The cloudy suspension was cooled and centrifuged at 5000 rpm for 20 min. The absorbance of the supernatant was measured at 280 nm with a spectrophotometer ([…], UK) against control solution. The control solution was sample or reference in methanol with different concentrations. Ibuprofen and flurbiprofen were used as reference compounds. The analysis was performed three times. The percentage of antitryptic activity (ATA) of the samples was evaluated by comparing with a blank sample. The blank sample is prepared as the test sample but with a small exception-perchloric acid is added before albumin. %ATA=Ablank-ATS-ACS/Ablank×100 where Ablank is the absorbance of the blank sample, ACS is the absorbance of the control solution (test sample in different concentrations) and ATS is the absorbance of the test samples. All of the analyses were made in triplicates. Data were expressed as mean ± SD. The level of significance was set at p < 0.05. The mean IC50 value was estimated based on three replicates by interpolating the graphical dependence of activity on concentration. Statistical program SPSS 19.0 software was used for data analysis by one-way ANOVA followed by Duncan's post hoc test to evaluate differences between mean values of activities (SPSS Inc., Chicago, IL, USA).

rats = assay: Prediction of acute rat toxicity by GUSAR software; conditions: from predicted rat LD50, IV

Row | SMILES | IC50 [1] [µM] | IC50 ([1]; listed as ascorbic acid) [µM] | IC50 (human albumin; read-out: IAD IC50 ± SD) [µM] | RM ± SD [2] | IC50 (bovine trypsin) [µM] | toxicity relative to flurbiprofen, intravenous (rats) | IC50 (human albumin; IAD IC50 ± SD) [µM] | IC50 ([1]; listed as quercetin) [µM]
1 | O=C1O[C@H]([C@@H](O)CO)C(O)=C1O [AA, ascorbic acid] | 141 ± 2 | 141 | – | – | – | – | – | –
2 | CC(C(=O)NCCc1ccccc1)c1ccc(-c2ccccc2)c(F)c1 (centres unmarked) [Compound 4a, 2-(2-fluoro-[1,1′-biphenyl]-4-yl)-N-phenethylpropanamide] | 223 ± 6 | – | 198 ± 2.3 | 1.24 ± 0.02 | 2260 ± 73 | – | – | –
3 | COc1cccc(CCNC(=O)C(C)c2ccc(-c3ccccc3)c(F)c2)c1 (centres unmarked) [Compound 4b, 2-(2-fluoro-[1,1′-biphenyl]-4-yl)-N-(3-methoxyphenethyl)propanamide] | 201 ± 3.3 | – | 188 ± 3 | 1.13 ± 0.02 | 208 ± 15 | – | – | –
4 | COc1ccc(CCNC(=O)C(C)c2ccc(-c3ccccc3)c(F)c2)cc1 (centres unmarked) [Compound 4c, 2-(2-fluoro-[1,1′-biphenyl]-4-yl)-N-(4-methoxyphenethyl)propanamide] | 144 ± 10 | – | 196.9 ± 0.5 | 1.21 ± 0.02 | 203 ± 14 | – | – | –
5 | COc1ccc(CCNC(=O)C(C)c2ccc(-c3ccccc3)c(F)c2)cc1OC (centres unmarked) [Compound 4d, N-(3,4-dimethoxyphenethyl)-2-(2-fluoro-[1,1′-biphenyl]-4-yl)propanamide] | 199.5 ± 1.3 | – | 173.74 ± 0.13 | 1.33 ± 0.02 | 215 ± 5 | – | – | –
6 | CC(C(=O)NCCc1cccc(Cl)c1)c1ccc(-c2ccccc2)c(F)c1 (centres unmarked) [Compound 4e, N-(3-chlorophenethyl)-2-(2-fluoro-[1,1′-biphenyl]-4-yl)propanamide] | 199 ± 9 | – | 193 ± 2.2 | 1.41 ± 0.03 | 198 ± 14 | four times greater toxicity than flurbiprofen | – | –
7 | CC(C(=O)O)c1ccc(-c2ccccc2)c(F)c1 (centres unmarked) [Flu, flurbiprofen] | 1160 ± 64 | – | – | 1.37 ± 0.02 | 441 ± 36 | – | 339 | –
8 | CC(C)Cc1ccc(C(C)C(=O)O)cc1 (centres unmarked) [Ibu, ibuprofen, reference compound] | 618 ± 25 | – | – | 1.11 ± 0.01 | 1260 ± 44 | – | – | –
9 | O=c1c(O)c(-c2ccc(O)c(O)c2)oc2cc(O)cc(O)c12 [Qrc, quercetin] | 229 ± 6 | – | – | – | – | – | – | 229
